Paper PMC11272733, “In vitro assessment of thyroid peroxidase inhibition by chemical exposure: comparison of cell models and detection methods” (Archives of Toxicology, 2024)
Read-outs that look alike come from different tables or passages of the source.

Experiments:
[1] = molecular target: T1, peroxidase activity (human TPO) in HEK-TPOA7 cell lysate (Homo sapiens, UniProt P07202); assay: TPO luminol (Lumi) assay, HEK-TPOA7 cell lysate; type: biochemical
T1 construct: We have transfected the full length of TPO, which is 933 amino acids; expressed in transfected cells; host or cells: HEK293T (clone HEK-TPOA7), lentiviral transduction, CMV promoter
T1 sequence (P07202 19-933): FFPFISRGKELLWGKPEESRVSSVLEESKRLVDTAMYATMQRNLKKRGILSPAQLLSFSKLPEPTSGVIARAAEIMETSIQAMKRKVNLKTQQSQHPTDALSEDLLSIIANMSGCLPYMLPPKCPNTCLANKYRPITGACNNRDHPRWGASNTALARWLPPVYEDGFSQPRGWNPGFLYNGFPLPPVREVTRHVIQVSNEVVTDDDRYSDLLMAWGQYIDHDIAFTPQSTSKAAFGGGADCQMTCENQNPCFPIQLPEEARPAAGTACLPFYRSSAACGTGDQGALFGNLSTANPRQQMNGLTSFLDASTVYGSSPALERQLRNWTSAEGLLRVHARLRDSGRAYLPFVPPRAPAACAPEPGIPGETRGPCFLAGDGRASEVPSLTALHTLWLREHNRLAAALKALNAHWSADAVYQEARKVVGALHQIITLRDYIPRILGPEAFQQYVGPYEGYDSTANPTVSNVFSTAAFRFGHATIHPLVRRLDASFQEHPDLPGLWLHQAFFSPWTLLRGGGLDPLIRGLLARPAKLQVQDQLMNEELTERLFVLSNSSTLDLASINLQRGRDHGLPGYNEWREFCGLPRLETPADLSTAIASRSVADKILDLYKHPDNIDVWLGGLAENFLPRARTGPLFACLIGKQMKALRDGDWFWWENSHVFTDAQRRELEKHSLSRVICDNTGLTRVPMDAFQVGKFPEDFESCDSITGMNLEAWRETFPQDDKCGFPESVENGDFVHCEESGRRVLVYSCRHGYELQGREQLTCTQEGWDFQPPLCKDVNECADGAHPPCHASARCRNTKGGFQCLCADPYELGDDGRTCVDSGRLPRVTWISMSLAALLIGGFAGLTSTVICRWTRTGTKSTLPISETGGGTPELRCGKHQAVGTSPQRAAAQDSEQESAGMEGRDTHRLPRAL
Source text: (§1) A human TPO (hTPO) sequence was obtained from NCBI (NM_000547.5) and it was used for the production of lentiviral vector by VectorBuilder (Malvern, USA) containing the gene of interest under the transcriptional control of CMV promotor and EGFP gene linked with puromycin resistance gene under control of EFS promotor (pLV[Exp]-CMV > {NM_000547_5}-EFS > EGFP:T2A:Puro). The purified vector was used to produce lentiviral particles in Lenti-X cell line (TakaraBio Inc., Göteborg, Sweden). […] The medium was replaced 3 h after exposure. The conditioned lentiviral medium was harvested 48 and 72 h later, frozen and stored at − 80 °C. HEK293T cells were exposed to the conditioned lentiviral medium supplemented with Polybrene (10 µg/mL, Merck, Prague, Czech Republic). After 24 h, the medium was replaced with fresh medium with puromycin (Invivogen, Toulouse, France) as a selection factor. After the puromycin treatment, cells were sorted on a FACS sorter FACSAria Fusion (BD Biosciences, Prague, Czech Republic) to obtain GFP-expressing cell clones that were further characterized.

[2] = molecular target: T2, human TPO (HEK-TPOA7 cell lysate) (Homo sapiens, UniProt P07202); assay: AUR-TPO assay, HEK-TPOA7 cell lysate; type: biochemical
T2 construct: We have transfected the full length of TPO, which is 933 amino acids; expressed in transfected cells; host or cells: HEK293T (clone HEK-TPOA7), lentiviral transduction, CMV promoter
T2 sequence (P07202 19-933): T1 sequence (P07202 19-933)
Source text: as §1
Lower final volume and concentration of H2O2 were used. […] Nonspecific influence of the chemicals themselves on the fluorescence signal was assessed by measuring the fluorescence signal after co-incubating the chemicals (30 min at 37 °C) with 0.3 µM Resorufin and 40 µM H2O2 with the same excitation/emission spectra as with the AUR.
Test of the effect of H2O2 concentration on the TPO activity measurement in the AUR assay: To assess the impact of H2O2 level on the AUR assay, a subset of chemicals (Table S6) was subjected to analysis at two H2O2 concentrations, 40 µM and 300 µM, to evaluate any variance in response.

[3] = tested on: peroxidase activity (TPO) in FRTL-5 cell lysate; assay: TPO luminol (Lumi) assay, FRTL-5 cell lysate
Experimental: The FRTL-5 (RRID:CVCL_0265), a spontaneously immortalized rat thyroid follicular cell line obtained from Sigma-Aldrich, was cultured in Coon F12 medium (Sigma-Aldrich) supplemented with L-Glutamine, hydrocortisone, somatostatin, TSH and 10% FBS.
(§2) HEPES solution (Sigma-Aldrich) was added to balance the pH.
(§3) Briefly, the cells were washed with phosphate-buffered saline (PBS), scraped, resuspended in PBS, and centrifuged for 5 min at 150 rcf. The supernatant was discarded, the pellet was lysed with 0.1% m/v sodium deoxycholate (DC, in PBS) and incubated on ice for 20 min. Lysed cells were centrifuged for 5 min at 12,000 rcf to extract the soluble protein fraction. The supernatant protein concentration was measured using the Bio-Rad DC-protein assay following the manufacturer’s protocol. The cell lysates were kept at − 80 °C for longer-term storage.
(§4) It was performed in the white 96-well plates with total volume of reaction mixture 200 μL per well containing 100 μL cell lysate with protein content of 0.12 mg/mL (final 0.06 mg/mL), 100 μl GNE solution [1 M glycine–NaOH (pH 9.0), 1 mM EDTA] with the test chemical in MeOH (1% MeOH final concentration). The plate was incubated for 30 min with gentle shaking at 37 °C.
For the data analysis, GraphPad Prism™ (GraphPad Software, San Diego, USA) was used for curve-fitting and IC50 or IC20 calculation. The signal (RLUs or fluorescence intensity) from the wells-containing cell lysate and chemical was background corrected (average RLUs or fluorescence intensity of lysate-free wells), then normalized to the solvent control (100% activity).

[4] = tested on: peroxidase activity in HEK293T cell lysate (no TPO expression); assay: TPO luminol (Lumi) assay, HEK293T cell lysate
Experimental: The HEK293T (RRID:CVCL_0063), a human embryonal kidney SV40 transformed immortalized cell line obtained from ATCC, as well as the derived TPO-transfected HEK293T cell line, were cultured in DMEM High Glucose media (Biosera, BioTech) supplemented with 10% FBS.
as §2, §3, §4
(§5) For the data analysis, GraphPad Prism™ (GraphPad Software, San Diego, USA) was used for curve-fitting and IC50 or IC20 calculation. The signal (RLUs or fluorescence intensity) from the wells-containing cell lysate and chemical was background corrected (average RLUs or fluorescence intensity of lysate-free wells), then normalized to the solvent control (100% activity). Fold change of signal intensity was calculated by dividing the signal from cell lysate-containing wells by the signal from the background (average of cell lysate-free wells).

[5] = tested on: peroxidase activity (TPO) in Nthy-ori 3-1 cell lysate; assay: TPO luminol (Lumi) assay, Nthy-ori 3-1 cell lysate; conditions: read-out: Lumi assay IC50, Nthy-ori 3-1
Experimental: as §3, §4, §5

[6] = tested on: TPO (rat thyroid microsomes); parameters: method as in Friedman et al. 2016; conditions: microsomes from 120 pooled rat thyroids; ref Friedman et al. 2016; cited from earlier work
[7] = tested on: peroxidase activity (TPO) in Nthy-ori 3-1 cell lysate
Experimental: as §3, §4, §5

[8] = tested on: peroxidase activity (TPO) in Nthy-ori 3-1 cell lysate; parameters: method as in Jomaa et al. (2015); conditions: ref Jomaa et al. (2015); read-out: Lumi assay IC50, Nthy-ori 3-1; cited from earlier work
TPO (Nthy-ori 3-1) = tested on: TPO (Nthy-ori 3-1); parameters: method as in Jomaa et al. (2015); conditions: ref Jomaa et al. (2015); read-out: AUR assay IC50, Nthy-ori 3-1; cited from earlier work
TPO (CHO-TPO) = tested on: TPO (CHO-TPO); parameters: method as in Dong et al. (2020); conditions: ref Dong et al. (2020); read-out: AUR assay IC50, CHO-TPO; cited from earlier work
TPO (LentiX-TPO) = tested on: TPO (LentiX-TPO); parameters: method as in Dong et al. (2020); conditions: ref Dong et al. (2020); read-out: AUR assay IC50, LentiX-TPO; cited from earlier work
[9] = Solubility of triclosan (PubChem); type: physicochemical; conditions: 20 °C; equivalent of 10 mg/L; ref PubChem
[10] = current study, n ≥ 3, hematin pre-treated cells, NA = not active up to the highest tested concentration, read-out: Lumi assay IC50, HEK-TPOA7
[11] = lysate of cells without hematin pre-treatment, unit inferred, read-out: IC50, HEK-TPOA7, Lumi assay, hematin -
[12] = current study, n ≥ 3, pH 7.2, 40 µM H2O2, NA = not active up to the highest tested concentration, read-out: AUR assay IC50, HEK-TPOA7
[13] = lysate of cells with hematin pre-treatment, unit inferred, read-out: IC50, HEK-TPOA7, AUR assay, hematin +
[14] = lysate of cells without hematin pre-treatment, unit inferred, read-out: IC50, HEK-TPOA7, AUR assay, hematin -
[15] = read-out: IC50, AUR assay, H2O2 300uM, HEK-TPOA7 lyzate, n=2, unit not given in Table S6
[16] = read-out: IC50, FRTL-5, Lumi assay, hematin +, lysate of cells with hematin pre-treatment, unit inferred
[17] = read-out: Lumi assay IC50, FRTL-5, current study, n ≥ 3, NA = not active up to the highest tested concentration
[18] = read-out: Lumi assay IC50, HEK293T, current study, PTU n = 2
[19] = IC20 shown where IC50 was not reached, read-out: AUR assay IC20, HEK-TPOA7
[20] = IC50, AUR assay, H2O2 300uM, HEK-TPOA7 lyzate, n=2, unit not given in Table S6

## CC(C)(c1cc(Br)c(O)c(Br)c1)c1cc(Br)c(O)c(Br)c1 [TBBPA, Tetrabromobisphenol A]
[1]; [10]
  IC50: 90.9 µM
[1]; [11]
  IC50: 107 µM
[2]; [12]
  IC50: 8.65 µM
[2]; [13]
  IC50: 8.65 µM
[2]; [14]
  IC50: 8.2 µM
[2]; [15]
  IC50: 6.5 µM
[3]; [16]
  IC50: 190 µM
[3]; [17]
  IC50: 130 µM
[4]; read-out: IC50, HEK293T, Lumi assay, hematin +, lysate of cells with hematin pre-treatment, unit inferred
  IC50: 87.1 µM
[4]; [18]
  IC50: 64.4 µM
[5]
  IC50: 77.2 µM

## S=C1NCCN1 [ETU, Ethylene thiourea]
[6]
  TPO inhibition in rat thyroid-based AUR assay (ToxCast): quantifiable IC50

## Cc1cc(NS(=O)(=O)c2ccc(N)cc2)no1 [SMX, Sulfamethoxazol, reference compound]
[2]; HEK-TPOA7 lyzate, n=2, starred chemicals, unit not given in Table S6, read-out: IC20, AUR assay, H2O2 300uM
  IC20: 140 µM
[2]; [19]
  IC20: 101 µM

## CCCc1cc(=O)[nH]c(=S)[nH]1 [PTU, 6-propylthiouracil, reference compound]
[7]
  IC50: 11.7 µM
[8]
  IC50: 16.4 µM
TPO (Nthy-ori 3-1)
  IC50: 35.2 µM
TPO (CHO-TPO)
  IC50: 4.9 µM
TPO (LentiX-TPO)
  IC50: 10.4 µM
[3]; [16]
  IC50: 12.5 µM
[3]; [17]
  IC50: 13.2 µM
[4]; [18]
  IC50: 18.9 µM

## Cn1cc[nH]c1=S [MMI, Methimazole, reference compound]
[1]; [10]
  IC50: 3.24 µM
[2]; [20]
  IC50: 1.33 µM
[2]; [12]
  IC50: 1.5 µM
[2]; [13]
  IC50: 1.5 µM
[2]; [14]
  IC50: 1.12 µM
[7]
  IC50: 3.91 µM
[8]
  IC50: 4 µM
TPO (Nthy-ori 3-1)
  IC50: 2.7 µM
TPO (CHO-TPO)
  IC50: 0.49 µM
TPO (LentiX-TPO)
  IC50: 0.23 µM
[3]; [16]
  IC50: 3.59 µM
[3]; [17]
  IC50: 3.69 µM

## CC(C)(c1ccc(O)cc1)c1ccc(O)cc1 [BPA, Bisphenol A]
[1]; [10]
  IC50: 130 µM
[1]; [11]
  IC50: 107 µM
[2]; [20]
  IC50: 10.9 µM
[2]; [13]
  IC50: 10.6 µM
[2]; [14]
  IC50: 8.29 µM
[7]
  IC50: 120 µM
[3]; [16]
  IC50: 166 µM
[3]; [17]
  IC50: 143 µM
[4]; [18]
  IC50: 122 µM

## Oc1cccc(O)c1 [RSC, Resorcinol]
[1]; [10]
  IC50: 17.9 µM
[2]; IC50, AUR assay, H2O2 40uM, HEK-TPOA7 lyzate, n=2, unit not given in Table S6
  IC50: 0.36 µM
[2]; [20]
  IC50: 0.61 µM
[2]; [12]
  IC50: 0.358 µM
[2]; [13]
  IC50: 0.36 µM
[2]; [14]
  IC50: 0.36 µM
[7]
  IC50: 13.8 µM
TPO (CHO-TPO)
  IC50: 0.05 µM
TPO (LentiX-TPO)
  IC50: 0.06 µM
[3]; [16]
  IC50: 13.9 µM
[3]; [17]
  IC50: 15.7 µM

## O=C(O)C(F)(F)C(F)(F)C(F)(F)C(F)(F)C(F)(F)C(F)(F)C(F)(F)F [PFOA, Perfluorooctanoic acid]
[1]; IC20 shown where IC50 was not reached
  IC20: 110 µM
[2]; [19]
  IC20: 5.15 µM

## O=C(c1ccc(O)cc1O)c1ccc(O)cc1O [BP2, 2,2′-4,4′-tetrahydroxy benzophenone]
[1]; [10]
  IC50: 20.2 µM
[2]; [12]
  IC50: 0.56 µM
[2]; [13]
  IC50: 0.56 µM
[2]; [14]
  IC50: 0.48 µM
[2]; [15]
  IC50: 0.64 µM
[7]
  IC50: 38.5 µM
TPO (CHO-TPO)
  IC50: 0.2 µM
TPO (LentiX-TPO)
  IC50: 0.24 µM
[3]; [16]
  IC50: 31.4 µM
[3]; [17]
  IC50: 29.6 µM

## Oc1cc(Cl)ccc1Oc1ccc(Cl)cc1Cl [TCS, Triclosan]
[1]; [10]
  IC50: 38.4 µM
[2]; HEK-TPOA7, pH 8.8 (SD = 14), read-out: AUR assay IC50 at higher pH
  IC50: 72.7 µM
[2]; [20]
  IC50: 165 µM
[2]; [13]
  IC50: 197 µM
[9]
  solubility (equivalent): 34.5 µM
TPO (CHO-TPO)
  IC50: > 253 µM
TPO (LentiX-TPO)
  IC50: > 253 µM
[3]; [16]
  IC50: 46.2 µM
[3]; [17]
  IC50: 67.9 µM
[4]; [18]
  IC50: 47.8 µM
[5]
  IC50: 51 µM
